Holding throughout (assay): growth of human tumour cells (NCI), 48 h
Test [1] has as its system SNB-75 CNS.
For test [2], the system named is TK-10 renal.
Test [3] deals with DLD-1 colon.
For test [4], the system named is NCI-H23 lung.
Test [5] relates to SW-620 colon.
The test system of test [6] is LXFL 529 NSCLC.
The test system of test [7] is A549 NSCLC.
Test [8] concerns MALME-3M melanoma.
For test [9], the system named is NCI-H522 lung.
Test [10] has as its system SR leukemia.

Where “and” joins values, the source holds several entries; their conditions need not be identical. Equal values may be shown once.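 48-hour exposure; five concentrations; linearly interpolated endpoints. TGI marks complete inhibition of growth.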 Where only a bound is given, the exact number is not on record here.

In the case of `O=C1c2ccccc2C(=O)C12CCc1ccccc12`, the TGI in [1], in test [2], in test [3], in test [4], in test [5] and in test [6] was greater than 100 µM each time. In addition, the TGI in test [7] and in test [8] was greater than 100 µM in each case.

Take `COc1ccc(/C=C2\CCC(CCN(C)C)(C3=CCCC3)C2=O)cc1` (stereo not drawn): the TGI was found to be 55.2 µM in [1]; 30.7 µM in test [2]; 79.2 µM in test [3]; 81.3 µM in test [4]; 31 µM in test [5]; 30.4 µM in test [6]. Besides, the TGI in [9] came to 31.2 µM; in [10] it was 88.5 µM; in test [7], 42.9 µM; in test [8] it was 32.6 µM.

As for `CC1(C)COC2C(N(Cc3ccccc3)Cc3ccccc3)C(=O)N21` (stereo not drawn), the TGI in test [1] was 41.2 µM; in test [2], greater than 100 µM; in test [3], greater than 100 µM; in test [4], greater than 100 µM; in test [5], greater than 100 µM; in test [6] it was greater than 100 µM. Moreover, the TGI in [9] is 45.6 µM; in test [10], 54.7 µM; in test [7], greater than 100 µM; in [8], greater than 100 µM.

Consider `COC(=O)C(=O)C(CC(=O)Nc1ccc(C)cc1)C(=O)OC` (stereo not drawn), for which the TGI in test [2], in test [3], in test [4], in test [5], in test [6] and in [9] was greater than 100 µM each time. The TGI in test [10], in test [7] and in [8] was greater than 100 µM each time.

In the case of `COc1cccc(-c2cc(=O)c3cc4c(cc3[nH]2)OCO4)c1`, the TGI was 0.245 µM in test [1]; 54.5 µM in test [2]; greater than 100 µM in test [3]; greater than 100 µM in test [5]; 23.2 µM in test [6]; greater than 100 µM in test [10]. The TGI in test [7] is greater than 100 µM; in test [8], greater than 67.6 µM.

`O=C1CCC2(c3ccccc3)Nc3ccccc3N12` (stereo not drawn): the TGI in test [1], in test [2], in test [3], in test [4], in test [5] and in [6] was greater than 100 µM in each case. In addition, the TGI in test [9], in test [7] and in [8] was greater than 100 µM throughout.

With `COC(=O)C(C(=O)C(=O)Nc1ccc(C)cc1C)c1csc(-n2nc(-c3ccccc3)cc2-c2ccccc2)n1` (stereo not drawn), the TGI in test [1] was 52.6 µM; in test [2], greater than 100 µM; in test [3], greater than 100 µM; in test [4], greater than 100 µM; in test [5], greater than 100 µM; in [6] it was greater than 100 µM. The TGI in test [9], in test [10], in test [7] and in test [8] was greater than 100 µM each time.

With `CCCC(=O)N[C@H]1CCc2cc(OC)c(OC)c(OC)c2-c2ccc(SC)c(=O)cc21`, the TGI in test [1] was 15.6 µM; in test [2] it was 99.9 µM; in test [3] it was greater than 100 µM; in test [4] it was 2.18 µM; in test [5], greater than 100 µM; in test [6], greater than 100 µM. The TGI is less than 0.01 µM in test [9], greater than 100 µM in test [10], greater than 100 µM in test [7] and greater than 100 µM in test [8].

Regarding `C=C1C(=O)C23[C@H](O)C1CC[C@H]2[C@]12COC3(O)[C@@H](O)[C@@H]1C(C)(C)CC[C@@H]2O`, the TGI in [1] came to 38.7 µM; in [2], 31 µM; in test [3] it was 25.1 µM; in test [4] it was 29.8 µM; in test [5] it was 4.86 µM; in [6], 2.56 µM. Besides, the TGI in test [9] was 1.9 µM; in [10] it was 34.9 µM; in test [7], 44.7 µM; in [8], 6.94 µM.

As for `C#CCN(N=O)C(=O)ON1C(=O)CCC1=O`, the TGI in test [1], in [2], in test [3], in [4], in test [5] and in test [6] was greater than 100 µM throughout. The TGI in test [9], in test [7] and in test [8] was greater than 100 µM throughout.

With `CC1CC2(S(=O)(=O)c3ccccc3)ON1CC2S(=O)(=O)c1ccccc1` (stereo not drawn), the TGI in test [1], in test [2], in test [3], in test [4], in [5] and in [6] was greater than 100 µM throughout. The TGI in test [9], in test [10], in test [7] and in [8] was greater than 100 µM in each case.

For the compound `CC(Oc1ccc(Oc2cnc3ccc(Cl)cc3n2)cc1)C(=O)O` (stereo not drawn), the TGI in [1], in test [2], in [3], in test [4], in test [5] and in [6] was greater than 100 µM in each case. Further, the TGI in test [9] was 99.4 µM and > 100 µM; in test [10], greater than 100 µM; in test [7] it was greater than 100 µM; in test [8], greater than 100 µM.

As to `CN(C)C(=S)/N=c1\ssc(=S)n1C`, the TGI in test [1], in [2], in [3], in test [4], in test [5] and in test [6] was greater than 100 µM in each case. Also, the TGI in test [9], in test [10], in test [7] and in test [8] was greater than 100 µM in each case.

Take `CC(=O)c1ccc(NC(=O)C(=O)C(C(=O)/C=C/c2ccccc2)C2OC(=O)c3ccccc32)cc1` (stereo not drawn): the TGI in test [1], in test [2], in test [3], in [4], in [5] and in test [6] was greater than 100 µM throughout. The TGI in [9], in test [10], in test [7] and in test [8] was greater than 100 µM throughout.

The values above are taken from PubChem BioAssay (NCI).
